{"source": "paper PMC7998250", "about": "“Temperate Zone Plant Natural Products—A Novel Resource for Activity against Tropical Parasitic Diseases” (Pharmaceuticals, 2021)", "key": {"[1]": {"system": "L. mexicana axenic amastigotes", "test": "Initial screen, L. mexicana axenic amastigotes, Alamar Blue", "format": "cell-based, Leishmania mexicana", "how_it_was_run": "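Purified temperate plant natural products from a commercial library (1 mg/mL in DMSO) were tested against Leishmania mexicana axenic amastigotes at a final 2 μM. Parasites were seeded at 1 × 10^6 cells/mL in 96-well plates containing 200 μL culture and incubated 72 h. Growth was measured by Alamar Blue and normalised to DMSO controls (1% v/v), with triplicates over two biological replicates (n = 6).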"}, "[2]": {"system": "T. brucei bloodstream form", "test": "Initial screen, T. brucei bloodstream form, Alamar Blue", "format": "cell-based, Trypanosoma brucei brucei", "how_it_was_run": "(§1)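 Bloodstream-form T. evansi Antat 3/3 and T. brucei Lister 427 were grown in HMI-11 with 10% FBS at 37 °C. Parasites were plated at 1×10^5 cells/mL with compound at 1 μM (T. evansi) or 2 μM (T. brucei) for 48 h, and growth was read by Alamar Blue relative to 1% DMSO controls (n = 6).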"}, "[3]": {"system": "T. evansi bloodstream form", "test": "Initial screen, T. evansi bloodstream form, Alamar Blue", "format": "cell-based, Trypanosoma evansi", "conditions": "initial screen; compared to a normalised control with same concentration of DMSO solvent", "how_it_was_run": "as §1"}, "[4]": {"system": "P. falciparum Dd2Luc intraerythrocytic trophozoites", "test": "Initial screen, intraerythrocytic P. falciparum, Malaria SYBR-Green I fluorescence assay", "format": "cell-based, Plasmodium falciparum", "conditions": "Plasmodium falciparum, 48 h, read-out: mean % growth, P. falciparum, initial screen; compared to a normalised control with same concentration of DMSO solvent", "how_it_was_run": "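L. mexicana axenic amastigotes at 1 × 10^6 cells/mL exposed 72 h to compounds at 2 μM, growth read by Alamar Blue; P. falciparum trophozoites at 0.5% parasitaemia, 2% haematocrit, 48 h at 2 μM, SYBR-Green I read-out. Growth normalised to 1% DMSO; hits ≥50% growth reduction.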"}, "[5]": {"system": "L. mexicana axenic amastigotes", "test": "Concentration-response EC50, L. mexicana axenic amastigotes (WT)", "format": "cell-based, Leishmania mexicana", "conditions": "read-out: L. mexicana EC50; axenic amastigotes, 72 h", "from_the_text": "(§2) Initial hits from the parasite panel screen were taken forward in log concentration versus normalised response assays to estimate the half maximal effective concentration (EC50) in hit species as well as the half maximal cytotoxic concentrations (CC50) in the human hepatoma cell line HepG2 as a preliminary test for selectivity. Using CC50/EC50 to define the selectivity index (SI), the selectivity for each compound in a defined species compared to a human cell line was estimated and compared to the EC50 (Figure 3).\n(§3) EC50 values were determined by serial two-fold dilution of each compound in 96 well plates. Culture conditions and viability assays were as stated for the initial screen, with some exceptions. L. mexicana and L. donovani axenic amastigotes were seeded at 2 × 10^6 cell/s mL, T. brucei and T. evansi were seeded at 2 × 10^5 cells/mL. For cytotoxicity studies, HepG2 cells were seeded at 1 × 10^5 cells/mL, incubated for 48 h and viability was assessed using the Alamar Blue assay [66, 67]. […] Normalised growth and viability data (compared to untreated controls) were plotted against Log10 concentration to estimate EC50 in GraphPad (Prism v6)."}, "T. brucei": {"system": "T. brucei", "test": "Concentration-response EC50, T. brucei", "format": "cell-based, Trypanosoma brucei brucei", "conditions": "read-out: T. brucei EC50; bloodstream form, 48 h", "from_the_text": "as §2, §3"}, "HepG2 cells [6]": {"system": "HepG2 cells", "test": "Cytotoxicity CC50, HepG2, Alamar Blue", "conditions": "read-out: HepG2 CC50; 48 h", "how_it_was_run": "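Human hepatoma cells seeded at 1 × 10^5 cells/mL with two-fold serial compound dilutions, incubated 48 h at 37 °C, 5% CO2 in DMEM/10% FBS. Viability read by Alamar Blue. CC50 estimated from viability normalised to untreated controls versus log concentration.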"}, "[7]": {"system": "activated monocyte cell line (THP-1)", "test": "Cytotoxicity CC50, differentiated THP-1, Alamar Blue", "format": "cell-based, human", "conditions": "differentiated THP-1, 48 h; read-out: THP1 CC50", "text": "The four lanosterone-like sterols derived from the Noble Fir Abies procera (700022, 700107, 700136) and the Grand Fir Abies grandis (700240) were the only initial compounds taken forward for L. mexicana due to their nanomolar activity and apparent low cytotoxicity (Figure 3a). […] Understanding the impact of the ring-opened lactone head group in this compound compared to the other three warrants further analysis in exploring their structure-activity relationships. These four sterols were also tested for growth inhibitory activity against L. donovani axenic amastigotes. […] As Leishmania spp. amastigotes typically reside with macrophages, further cytotoxicity assays with these sterols were performed against an activated monocyte cell line (THP-1) (Figure 4b). […]"}, "HepG2 cells [8]": {"system": "HepG2 cells", "set-up": "method as in PMID 31617221", "conditions": "cited from earlier work"}, "P. falciparum Dd2Luc": {"system": "P. falciparum Dd2Luc", "set-up": "method as in PMID 27999014", "conditions": "control compounds; cited from earlier work"}, "T. b. rhodesiense": {"system": "T. b. rhodesiense", "set-up": "method as in PMID 29896963", "conditions": "cited from earlier work"}, "[9]": {"system": "P. falciparum NF54 strain", "set-up": "method as in PMID 29896963", "conditions": "drug sensitive NF54 strain; cited from earlier work"}, "[10]": {"conditions": "initial screen, compared to a normalised control with same concentration of DMSO solvent"}}, "note": "pEC50: −log10 of the molar value.", "data": [{"smiles": "C=C1C(=O)OC2CC(C)C3C=CC(=O)C3(C)C(OC(C)=O)C12", "note": "(centres unmarked) [Compound 701154]", "values": [{"measurement": "initial hit against L. mexicana", "setting": "[1]; 2 μM, growth inhibited by ≥80%", "result": "initial hits"}, {"measurement": "inhibition of growth at 2 µM", "setting": "[1]; Leishmania mexicana, read-out: initial hit L.m", "result": "> 80", "unit": "%"}, {"measurement": "mean % growth, L. mexicana", "setting": "[1]; [10]", "result": -0.64, "unit": "%"}, {"measurement": "initial hit against T. brucei", "setting": "[2]; 2 μM, growth reduced by ≥50%", "result": "initial hits"}, {"measurement": "inhibition of growth at 2 µM", "setting": "[2]; Trypanosoma brucei, read-out: initial hit T.b", "result": "> 50", "unit": "%"}, {"measurement": "mean % growth, T. b. brucei", "setting": "[2]; [10]", "result": 14.7, "unit": "%"}, {"measurement": "mean % growth, T. evansi", "setting": "[3]", "result": 79.8, "unit": "%"}, {"measurement": "activity at 2 µM", "setting": "[4]", "result": 66.5, "unit": "%"}, {"measurement": "pEC50", "setting": "[5]", "result": 6.02}, {"measurement": "pEC50", "setting": "T. brucei", "result": 5.80}, {"measurement": "CC50", "setting": "HepG2 cells [6]", "result": 4200, "unit": "nM"}, {"measurement": "CC50", "setting": "[7]", "result": 1500, "unit": "nM"}]}, {"smiles": "COc1cc(C[C@H]2C(=O)OC[C@@H]2Cc2ccc(OC)c(OC)c2)ccc1O", "note": "[arctigenin]", "values": [{"measurement": "antiproliferative activity against HepG2 cells", "setting": "HepG2 cells [8]", "result": "potent antiproliferative activity"}]}, {"smiles": "O=C1C(O)=C([C@H]2CC[C@H](c3ccc(Cl)cc3)CC2)C(=O)c2ccccc21", "note": "[atovaquone]", "values": [{"measurement": "rate of kill of control antimalarials", "setting": "P. falciparum Dd2Luc", "result": "slow killing compound with 48 h lag in action"}]}, {"smiles": "C[C@H]1[C@@H](O)O[C@@H]2O[C@@]3(C)CC[C@H]4[C@H](C)CC[C@@H]1[C@@]24OO3", "note": "[dihydroartemisinin]", "values": [{"measurement": "rate of kill of control antimalarials", "setting": "P. falciparum Dd2Luc", "result": "rapid initial rate of kill with no lag in action"}]}, {"smiles": "CC(C)c1cc(CC[C@@H]2C(=O)CCCC2(C)C)c(O)cc1O", "note": "[leriifoliol]", "values": [{"measurement": "activity against T. b. rhodesiense", "setting": "T. b. rhodesiense", "result": "micromolar activity"}, {"measurement": "activity against P. falciparum", "setting": "[9]", "result": "submicromolar activity"}]}]}
